Assay results as given in PubChem BioAssay AID2060900 (Molecular Pharmacology Branch, DTP, NCI, 2025).
Several values for one entry are separate records, joined by “and”; a condition that tells them apart may be missing. Identical values can stand only once.

Each compound was assayed on 521955-158-R2-J5-PDC complex spheroids, viability (assay: Anticancer human tumor 521955-158-R2-J5-PDC patient-derived pancreatic carcinoma cell line growth inhibition [RAS]). Conditions: compound 0.0316 µM; stronger effect = lower value.
Excerpt: RAS pathway inhibitors in Combinations in Complex Spheroids
A high-throughput screen of multi-cell type tumor spheroids was designed to identify active combinations of RAS pathway inhibitors and targeted small molecules. Complex spheroids include a stromal component modeled by human endothelial cells (HUVEC) and fibroblasts modeled by human mesenchymal stem cells (MSCs). The concentration ranges selected for each drug and investigational agent were based upon clinically achievable concentrations if the clinical Cmax of the agent was known.
Compounds. The drugs and investigational agents: abemaciclib (NSC768073), cobimetinib (NSC768068), divarasib (GDC6063, NSC841802), docetaxel (NSC628503), GDC-1971 (RLY-1971, NSC841576), gemcitabine (NSC613327), inavolisib (NSC800729), ipatasertib (NSC767898), KB-0742 (NSC834161), MRTX-1133 (NSC836407), osimertinib (NSC779217), RMC-4630 (NSC839698), RMC-6236 (NSC851965), RMC-6291 (NSC852671), Ro-3306 (NSC812927), sapanisertib (NSC764658), SN-38 (NSC673596), staurosporine (NSC755774), SY5609 (NSC837396), and tovorafenib (DAY101, NSC766906), were obtained from the National Cancer Institute (NCI) Developmental Therapeutics Program Chemical Repository. The FDA-approved anticancer drug set is available from the NCI Developmental Therapeutics Program. […] The stock solutions were prepared in dimethyl sulfoxide (DMSO, Sigma-Aldrich, St. Louis, MO, cat. D2650) at 800-fold the tested concentration and stored at -70 degrees C prior to their use. All drugs and investigational agents were tested over a range starting from a high concentration at or near the clinical Cmax and decreasing in half-log increments. If the clinical Cmax for an agent had not been determined, the highest concentration tested was 10 microM.
Cell Culture. All cells were maintained in an incubator at 37 degrees C and 5% CO2 with 95% humidity. The PDC lines were cultured according to standard operating procedures established by the NCI PDMR. All PDCs were thawed and cultured in Matrigel-coated flasks prepared with a working solution of 1X Ham's F-12 nutrient mix, without supplementation (Invitrogen, Waltham, MA, cat. 11765054), 100 U/mL penicillin-streptomycin (Invitrogen, cat. 15140122), and 2.5% Matrigel (Corning Inc., Corning, NY, cat. 354248) for the first three passages. The 362531-283-R-J2-PDC and 782815-120-R-J1-PDC lines were cultured in 6C/Colon 1B media, which includes advanced DMEM/F-12 (Thermo Fisher Scientific, cat. 12634028), 10 mM HEPES (Thermo Fisher Scientific, cat. 15630080), 1X GlutaMAX supplement (Thermo Fisher Scientific, cat. 35050061), 0.1 mg/mL primocin (InvivoGen, San Diego, CA, cat. ant-pm-2), 10% defined fetal bovine serum, heat inactivated (HyClone Laboratories Inc., Logan, UT, cat. SH30070.03HI), 50% L-WRN conditioned media (ATCC, cat. CRL-3276), 1.25 mM N-Acetyl-L-cysteine (Sigma-Aldrich, cat. A9165), 10 mM nicotinamide (Sigma-Aldrich, cat. N0636), 1X B-27 supplement (Thermo Fisher Scientific, cat. 17504044), 1X N-2 supplement (Thermo Fisher Scientific, cat. 17502048), 50 ng/mL human EGF (Thermo Fisher Scientific, cat. PHG0311), and 10 microM Y-27632 dihydrochloride (Tocris Bioscience, cat. 1254). The K12877-001-R-J1-PDC line was cultured in 6I media, which includes all 6C/Colon 1B media plus 10 ng/mL human FGF-10 (PeproTech, cat. 100-26), 1 ng/mL human FGF-2 (PeproTech, cat. 100-18B), 1 µM prostaglandin E2 (Tocris Bioscience, cat. 2296), […] hydrocortisone (Sigma-Aldrich, cat. H4001), and […] bovine insulin (Sigma-Aldrich, cat. I6634). The K86415-001-R-J1-PDC line was cultured in 6D media, which includes all 6C/Colon 1B media components minus the L-WRN conditioned media. The 485176-168-R4-J1-PDC was cultured in PANC media, which includes all 6C/Colon 1B media plus 100 ng/mL human FGF-10 (PeproTech, cat. 100-26), 500 nM SB-431542 (Selleckchem, cat. S1067), and 10 nM gastrin (Tocris Bioscience, cat. 3006). […]
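Note: compound exposure lasted seven days before the viability read.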
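Throughout, for viability, T/C: spheroids also contain HUVEC endothelial cells and mesenchymal stem cells as stroma.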

Compound | viability, T/C
Nc1ccn(C2OC(CO)C(O)C2(F)F)c(=O)n1 (stereo not given) | 79.1% [middle of 4 runs]
O=C(c1ccc(F)c(F)c1Nc1ccc(I)cc1F)N1CC(O)([C@@H]2CCCCN2)C1 | 51.7% [middle of 4 runs]

Same assay, conditions: compound 0.0949 µM; stronger effect = lower value

Compound | viability, T/C
CC1(C)CCC(Nc2ncc(C(F)(F)F)c(-c3c[nH]c4c(P(C)(C)=O)c(C#N)ccc34)n2)CN1 (stereo not given) | 52.8% [middle of 4 runs]
CCc1c2c(nc3ccc(O)cc13)-c1cc3c(c(=O)n1C2)COC(=O)[C@]3(O)CC | 6.59% [middle of 4 runs]
CCn1c(-c2cc(N3CCN(C)CC3)cnc2C(C)OC)c2c3cc(ccc31)-c1csc(n1)CC(NC(=O)C1CC1C)C(=O)N1CCCC(N1)C(=O)OCC(C)(C)C2 (stereo not given) | 12.8% [middle of 8 runs]

Same assay, conditions: compound 0.1 µM; stronger effect = lower value

Compound | viability, T/C
C#Cc1c(F)ccc2cc(O)cc(-c3ncc4c(N5CC6CCC(C5)N6)nc(OCC56CCCN5CC(F)C6)nc4c3F)c12 (stereo not given) | 57.3% [middle of 8 runs]
C=CC(=O)Nc1cc(Nc2nccc(-c3cn(C)c4ccccc34)n2)c(OC)cc1N(C)CCN(C)C | 79.1% [middle of 4 runs]
CC(C)n1nc(-c2ccc3oc(N)nc3c2)c2c(N)ncnc21 | 37% [middle of 4 runs]
CCN1CCN(Cc2ccc(Nc3ncc(F)c(-c4cc(F)c5nc(C)n(C(C)C)c5c4)n3)nc2)CC1 | 81.5% [middle of 4 runs]
Nc1ccn(C2OC(CO)C(O)C2(F)F)c(=O)n1 (stereo not given) | 72.9% [middle of 4 runs]
O=C(c1ccc(F)c(F)c1Nc1ccc(I)cc1F)N1CC(O)([C@@H]2CCCCN2)C1 | 42.8% [middle of 4 runs]

Same assay, conditions: compound 0.3 µM; stronger effect = lower value

Compound | viability, T/C
CCc1c2c(nc3ccc(O)cc13)-c1cc3c(c(=O)n1C2)COC(=O)[C@]3(O)CC | 6.5% [middle of 4 runs]
CCn1c(-c2cc(N3CCN(C)CC3)cnc2C(C)OC)c2c3cc(ccc31)-c1csc(n1)CC(NC(=O)C1CC1C)C(=O)N1CCCC(N1)C(=O)OCC(C)(C)C2 (stereo not given) | 10.2% [middle of 8 runs]
CCn1c(-c2cccnc2C(C)OC)c2c3cc(ccc31)N1CCOC(CC(NC(=O)C(C(C)C)N(C)C(=O)C3(F)CCN(C(=O)C#CC(C)(C)N(C)C)CC3)C(=O)N3CCCC(N3)C(=O)OCC(C)(C)C2)C1 (stereo not given) | 77.3% [middle of 8 runs]

Same assay, conditions: compound 0.316 µM; stronger effect = lower value

Compound | viability, T/C
C#Cc1c(F)ccc2cc(O)cc(-c3ncc4c(N5CC6CCC(C5)N6)nc(OCC56CCCN5CC(F)C6)nc4c3F)c12 (stereo not given) | 53.9% [middle of 8 runs]
Nc1ccn(C2OC(CO)C(O)C2(F)F)c(=O)n1 (stereo not given) | 36.5% [middle of 4 runs]
O=C(c1ccc(F)c(F)c1Nc1ccc(I)cc1F)N1CC(O)([C@@H]2CCCCN2)C1 | 33.9% [middle of 4 runs]

Same assay, conditions: compound 1 µM; stronger effect = lower value

Compound | viability, T/C
C#Cc1c(F)ccc2cc(O)cc(-c3ncc4c(N5CC6CCC(C5)N6)nc(OCC56CCCN5CC(F)C6)nc4c3F)c12 (stereo not given) | 51.1% [middle of 8 runs]
Nc1ccn(C2OC(CO)C(O)C2(F)F)c(=O)n1 (stereo not given) | 16.2% [middle of 4 runs]
O=C(c1ccc(F)c(F)c1Nc1ccc(I)cc1F)N1CC(O)([C@@H]2CCCCN2)C1 | 23.6% [middle of 4 runs]

Same assay, conditions: compound 3.16 µM; stronger effect = lower value

Compound | viability, T/C
C#Cc1c(F)ccc2cc(O)cc(-c3ncc4c(N5CC6CCC(C5)N6)nc(OCC56CCCN5CC(F)C6)nc4c3F)c12 (stereo not given) | 45.4% [middle of 8 runs]

Same assay, conditions: compound 10 µM; stronger effect = lower value

Compound | viability, T/C
C#Cc1c(F)ccc2cc(O)cc(-c3ncc4c(N5CC6CCC(C5)N6)nc(OCC56CCCN5CC(F)C6)nc4c3F)c12 (stereo not given) | 35.1% [middle of 8 runs]

Same assay, conditions: compound alone; run of 05/20/2024

Compound | IC50
CCn1c(-c2cc(N3CCN(C)CC3)cnc2C(C)OC)c2c3cc(ccc31)-c1csc(n1)CC(NC(=O)C1CC1C)C(=O)N1CCCC(N1)C(=O)OCC(C)(C)C2 (stereo not given) | < 0.949 nM and 1.04 nM
CCn1c(-c2cccnc2C(C)OC)c2c3cc(ccc31)N1CCOC(CC(NC(=O)C(C(C)C)N(C)C(=O)C3(F)CCN(C(=O)C#CC(C)(C)N(C)C)CC3)C(=O)N3CCCC(N3)C(=O)OCC(C)(C)C2)C1 (stereo not given) | > 300 nM

Same assay, conditions: curve of compound

Compound | IC50
C=CC(=O)Nc1cc(Nc2nccc(-c3cn(C)c4ccccc34)n2)c(OC)cc1N(C)CCN(C)C | 965 nM and 466 nM and > 1000 nM
CC(C)n1nc(-c2ccc3oc(N)nc3c2)c2c(N)ncnc21 | 21.3 nM [middle of 4 runs]
CCN1CCN(Cc2ccc(Nc3ncc(F)c(-c4cc(F)c5nc(C)n(C(C)C)c5c4)n3)nc2)CC1 | > 1000 nM
CCc1c2c(nc3ccc(O)cc13)-c1cc3c(c(=O)n1C2)COC(=O)[C@]3(O)CC | 2.64 nM [middle of 4 runs]
Nc1ccn(C2OC(CO)C(O)C2(F)F)c(=O)n1 (stereo not given) | 183 nM [middle of 4 runs]
O=C(c1ccc(F)c(F)c1Nc1ccc(I)cc1F)N1CC(O)([C@@H]2CCCCN2)C1 | 40.1 nM [middle of 4 runs]
